According to patent US12618044B2, “Specification of functional cranial placode derivatives from human pluripotent stem cells” (MEMORIAL SLOAN-KETTERING CANCER CENTER, priority 2013, dated 2026):
Structures can show the parent of a compound that is named as a salt.

Tests used:
Format in all cases: cell-based, human
pre-placodal cells = assay: Pituitary placode specification under modified PIP
Text: Further treatment with agonists for SHH signaling (FIG. 39A) at the pre-placode stage (day 7-11) induced expression of the oral ectoderm marker SIX6 and PITX1 (FIG. 38B), master regulators of pituitary gland development (Tremblay et al., 1998).
Endocrine cells of the anterior pituitary gland are derived from three main precursors lineages (Scully and Rosenfeld, 2002). […] Induction of PIT1 and GATA2 precursor lineages was less efficient but was increased following treatment with the γ-secretase inhibitor DAPT (FIGS. 38F, 38G).
Differentiation of hormone producing cells: During placode induction protocol, Sonic Hedgehog (C25II-R&D 100 ng/ml) and Purmorphamine (Stemgent, 1 μM) were added between days 7-11 of PIP to promote differentiation towards pituitary placode anlage. The cells were maintained without passaging in N2 medium and treated with additional factors such as DAPT (Tocris, 10 μM), between day 13 and day 17 of differentiation to induce PIT1+ and GATA2+ precursor cells (see FIG. 39A).

SIX1::GFP cells = assay: PIP-E6 pituitary induction and hormone release
Description: Induction of anterior pituitary gland cells: Pituitary placode cells were induced by culturing SIX1::GFP cells according to the PIP-E6 protocol, wherein pituitary factors SHH, FGF8, FGF10 and/or hypothalamus CM were supplemented in the culture media from days 6-15.
Induction of anterior pituitary gland cells: SIX1::GFP hPSCs were cultured according to a modified PIP-E6 protocol, wherein pituitary factors such as FGF8, FGF10 or SHH, etc., were included in the culture media from days 6-14. Cells were sorted based on expression of SIX1::GFP, and were replated at a concentration of 10,000 cells/cm^2 on PO/L/F, and were incubated with small molecule/growth factors for 2 weeks. (FIG. 68). […] (FIG. 69).

hESC = assay: Neural induction of hESC by dual SMAD inhibition (PAX6 expression); settings: 10 uM to 30 nM, each added to 10 uM of SB431542
Description: In one embodiment, the present invention contemplates a method establishing an even cell distribution for inducing homogenous neural differentiation of hESCs. To this end, undifferentiated hESC were dissociated into single cells and re-plated onto Matrigel coated dishes in conditioned medium supplement with ROCK inhibitor, Y-27632 (Wananabe et al., 2007). After 72 hours, cells were switched from hESC conditions to knock-out serum replacement medium (KSR) containing either Noggin, SB4315242, or both factors and allowed to differentiate for a total of 11 days (FIG. 1A). […] Neural induction was monitored by expression of PAX6, an early marker of neuroectodermal differentiation (Callaerts, et al., Annu Rev Neurosci 20:483 (1997).
hESC cultures were disaggregated using accutase for 20 minutes, washed using hESC media and pre-plated on gelatin for 1 hour at 37° C. in the presence of ROCK inhibitor to remove MEFs. The nonadherent hESC were washed and plated on matrigel at a density of 10,000-25,000 cells/cm^2 on matrigel (BD) coated dishes in MEF conditioned hESC media (CM) spiked with 10 ng/mL of FGF-2 and ROCK-inhibitor. […] The ROCK inhibitor was withdrawn, and hESC were allowed to expand in CM for 3 days or until they were nearly confluent. […]

[1] = test system: NSB derived neural precursor cells; assay: Ventral patterning of NSB derived neural precursor cells by FP conditioned media; settings: with CM from hESC derived FP
Text: The FP has important functional roles during development in neural patterning and axonal path finding (Jessell, 2000). To assess the functional properties of hESCs derived FP conditioned media was isolated at days 9 and 11 and tested for expression of Netrin-1 in the medium using ELISA (FIG. 17A). Under normal NSB conditions, Netrin-1 is detectable at Day 9 and decreases at Day 11 while in the NSB+SHH condition, there is a 3.5 fold increase in Netrin-1 levels, increasing at Day 11 (FIG. 17B). SHH is a critical patterning factor secreted by FP cells and specifying ventral cell types in a dose-dependent manner. To test if hESCs derived FP secretes factors that can specify ventral precursor domains, conditioned media (CM) was isolated at Days 9 and 11 of the differentiation. At Day 6, exogenous SHH was removed and cultures were washed to eliminate any exogenously added SHH from the medium. Naïve neural progenitor cells were isolated at Day 11 of the control (NSB) protocol and cultured with either NSB CM or FP CM. After Day 5 of culture in the presence of CM, the inventors probed for the expression of ventral precursor markers and expression of the SHH responsive gene GLI2. […] Increase in the expression of ventral markers was confirmed at the level of protein (FIG. 17D).

C[C@H](NC(=O)Cc1cc(F)cc(F)c1)C(=O)N[C@H](C(=O)OC(C)(C)C)c1ccccc1 [DAPT]
Induction of PIT1 and GATA2 precursor lineages (pre-placodal cells): increased | proportion of each of the three pituitary precursor lineages (SIX1::GFP cells): modulated

c1cc(-c2cnn3cc(-c4ccc(OCCN5CCCCC5)cc4)cnc23)ccn1 [Dorsomorphin, 6-[4-[2-(1-Piperidinyl)ethoxy]phenyl]-3-(4-pyridinyl)-pyrazolo[1,5-a]pyrimidine dihydrochloride]
efficiency based on the percentage of PAX6+ cells, versus Noggin/SB431542 (hESC): not as high

CC1=C2C[C@H]3[C@@H](CC=C4C[C@@H](O)CC[C@@]43C)[C@@H]2CC[C@]12O[C@@H]1C[C@H](C)CN[C@H]1[C@H]2C [cyclopamine]
NKX2.1, NKX6.1, and GLI2 expression [1]: significantly reduced
